Laboratory results published in US8455497B2, “Inhibitors of aspartyl protease” (Vertex Pharmaceuticals Incorporated, priority 1999, dated 2013).
Like-named read-outs stand apart in the source and are kept apart here.

Experiments:
HIV-1 (strain IIIB) = test: Antiviral activity assay in MT4 cells (propidium iodide based); assay type: cell-based; settings: wild type HIV-1 virus, MT4 cells, read-out: Wildtype virus - IC50
Summary of the method: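 Compound serial dilutions in RPMI/FCS received MT4 cells pre-infected 1 hr at 37°C with HIV-1 IIIB at 100×TCID50. After 5 days' culture and Nonidet-40 lysis, well DNA content was measured by propidium iodide dye; mock-infected cells served as control.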

[1] = test system: D545701-14 multi protease inhibitor resistant virus; test: Anti-viral activity against resistant virus D545701-14 in MT4 cells; assay type: cell-based, HIV-1
Description: (§1) Exponentially growing MT4 cells were harvested and centrifuged at 1000 rpm for 10 min in a Jouan centrifuge (model CR 4 12). […] Cell aliquots were infected by the addition of HIV-1 (strain IIIB) diluted to give a viral multiplicity of infection of 100×TCID50. […] Cell infection was allowed to proceed for 1 hr at 37° in a tissue culture incubator with humidified 5% CO2 atmosphere. After the 1 hr incubation the virus/cell suspensions were diluted 6-fold with fresh medium, and 125 μl of the cell suspension was added to each well of the plate containing pre-diluted compound. Plates were then placed in a tissue culture incubator with humidified 5% CO2 for 5 days. At the end of the incubation period, 27 μl of 5% Nonidet-40 was added to each well of the incubation plate. After thorough mixing with a Costar multitip pipetter, 60 μl of the mixture was transferred to filter-bottomed 96-well plates. The plates were analyzed in an automated assay instrument (Screen Machine, Idexx Laboratories). The assay makes use of a propidium iodide dye to estimate the DNA content of each well.
(§2) Anti-Viral Activity Against Resistant Viruses
EP13 and DS45701, two multi protease inhibitor resistant viruses were used to assess potency against mutant viruses. These viruses contain the following mutations relative to the consensus sequence of wild type virus: […]

[2] = test system: EP13 multi protease inhibitor resistant virus; test: Anti-viral activity against resistant virus EP13 in MT4 cells; assay type: cell-based, HIV-1
Description: as §1, §2
EP13 and DS45701, two multi protease inhibitor resistant viruses were used to assess potency against mutant viruses. These viruses contain the following mutations relative to the consensus sequence of wild type virus:
EP13: Protease amino acid sequence: M46I, L63P, A71V, V82F/L, I84V; No reverse transcriptase mutations.

[3] = D545701-14 multi protease inhibitor resistant virus, MT4 cells, read-out: D545701-14 mutant - IC50
[4] = EP13 multi protease inhibitor resistant virus, MT4 cells, read-out: EP13 mutant IC50
[5] = Human immunodeficiency virus 1, IIIB
[6] = Human immunodeficiency virus 1, MT4, read-out: D545701-14 mutant - IC50, D545701-14 multi protease inhibitor resistant virus, MT4 cells
[7] = Human immunodeficiency virus 1, MT4, read-out: EP13 mutant IC50, EP13 multi protease inhibitor resistant virus, MT4 cells

| Structure (SMILES) | IC50 (HIV-1 (strain IIIB)) [nM] | IC50 [1, 3] [nM] | IC50 [2, 4] [nM] | IC50 (HIV-1 (strain IIIB); [5]) [nM] | IC50 [1, 6] [nM] | IC50 [2, 7] [nM] | IC50 ([1]; Human immunodeficiency virus 1, MT4, read-out: D545701-14 mutant - IC50) [nM] | IC50 ([2]; Human immunodeficiency virus 1, MT4, read-out: EP13 mutant IC50) [nM] |
| --- | --- | --- | --- | --- | --- | --- | --- | --- |
| CC(=O)NCCCCOc1ccc(C[C@H](NC(=O)O[C@H]2CO[C@H]3OCC[C@H]32)[C@H](O)CN(CC(C)C)S(=O)(=O)c2ccc3c(c2)OCO3)cc1 [Compound 230] | 10 to 100 | 1 to 10 | 1 to 10 |  |  |  |  |  |
| CC(C)CN(C[C@@H](O)[C@H](Cc1ccc(OCCCNS(C)(=O)=O)cc1)NC(=O)O[C@H]1CO[C@H]2OCC[C@H]21)S(=O)(=O)c1ccc2c(c1)OCO2 [Compound 251] | 10 to 100 | 1 to 10 | 1 to 10 |  |  |  |  |  |
| CC(C)CN(C[C@@H](O)[C@H](Cc1ccc(OCCNC(=O)N(C)C)cc1)NC(=O)O[C@H]1CO[C@H]2OCC[C@H]21)S(=O)(=O)c1ccc2c(c1)OCO2 [Compound 253] | 10 to 100 | 1 to 10 | 1 to 10 |  |  |  |  |  |
| CC(C)CN(C[C@@H](O)[C@H](Cc1ccc(OCCCNC(=O)c2ccoc2)cc1)NC(=O)O[C@H]1CO[C@H]2OCC[C@H]21)S(=O)(=O)c1ccc2c(c1)OCO2 [Compound 261, (3R,3aS,6aR)-hexahydrofuro[2,3-b]furan-3-yl (1S,2R)-3-[(1,3-benzodioxol-5-ylsulfonyl)(isobutyl)amino]-1-{4-[3-(3-furoylamino)propoxy]benzyl}-2-hydroxypropylcarbamate] |  |  |  | 1 to 10 | 1 to 10 | 1 to 10 |  |  |
| CC(C)CN(C[C@@H](O)[C@H](Cc1ccc(OCCN/C(=N/C#N)Oc2ccccc2)cc1)NC(=O)O[C@H]1CO[C@H]2OCC[C@H]21)S(=O)(=O)c1ccc2c(c1)OCO2 [Compound 262, (3R,3aS,6aR)-hexahydrofuro[2,3-b]furan-3-yl (1S,2R)-3-[(1,3-benzodioxol-5-ylsulfonyl)(isobutyl)amino]-1-[4-(2-{[(E and/or Z)-(cyanoimino)(phenoxy)methyl]amino}ethoxy)benzyl]-2-hydroxypropylcarbamate] |  |  |  | 1 to 10 |  |  | 1 to 10 | 1 to 10 |
| CC(C)CN(C[C@@H](O)[C@H](Cc1ccc(OCCCCN/C(=N/C#N)Oc2ccccc2)cc1)NC(=O)O[C@H]1CO[C@H]2OCC[C@H]21)S(=O)(=O)c1ccc2c(c1)OCO2 [Compound 263, (3R,3aS,6aR)-hexahydrofuro[2,3-b]furan-3-yl (1S,2R)-3-[(1,3-benzodioxol-5-ylsulfonyl)(isobutyl)amino]-1-[4-(4{[(E and/or Z)-(cyanoimino)(phenoxy)methyl]amino}butoxy)benzyl]-2-hydroxypropylcarbamate] |  |  |  | 1 to 10 | 1 to 10 | 1 to 10 |  |  |
| CC(C)CN(C[C@@H](O)[C@H](Cc1ccc(OCCCNc2ccc(C#N)cn2)cc1)NC(=O)O[C@H]1CO[C@H]2OCC[C@H]21)S(=O)(=O)c1ccc2c(c1)OCO2 [Compound 270, (3R,3aS,6aR)-hexahydrofuro[2,3-b]furan-3-yl (1S,2R)-3-[(1,3-benzodioxol-5-ylsulfonyl)(isobutyl)amino]-1-(4-{3[(5-cyano-2-pyridinyl)amino]propoxy}benzyl)-2-hydroxypropylcarbamate] |  |  |  | 1 to 10 | 1 to 10 | 1 to 10 |  |  |
| CC(C)CN(C[C@@H](O)[C@H](Cc1ccc(OCCCNc2ccc(C(F)(F)F)cn2)cc1)NC(=O)O[C@H]1CO[C@H]2OCC[C@H]21)S(=O)(=O)c1ccc2c(c1)OCO2 [Compound 272, (3R,3aS,6aR)-hexahydrofuro[2,3-b]furan-3-yl (1S,2R)-3-[(1,3-benzodioxol-5-ylsulfonyl)(isobutyl)amino]-2-hydroxy-1-[4-(3-{[5-(trifluoromethyl)-2-pyridinyl]amino}propoxy)benzyl]propylcarbamate] |  |  |  | 1 to 10 | 1 to 10 | 1 to 10 |  |  |
| CC(C)CN(C[C@@H](O)[C@H](Cc1ccc(OCCCN(C)C)cc1)NC(=O)O[C@H]1CO[C@H]2OCC[C@H]21)S(=O)(=O)c1ccc2c(c1)OCO2 [Compound 274, (3R,3aS,6aR)-hexahydrofuro[2,3-b]furan-3-yl (1S,2R)-3-[(1,3-benzodioxol-5-ylsulfonyl)(isobutyl)amino]-1-{4-[3-(dimethylamino)propoxy]benzyl}-2-hydroxypropylcarbamate] |  |  |  | 10 to 100 | 10 to 100 | 1 to 10 |  |  |
